Test results as given in PubChem BioAssay (NCI).
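Assay format: 96-well plates, 48-hour exposure. The concentration for 50% growth inhibition is given as GI50. The concentration for full growth arrest is given as TGI.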

Tests used:
Experiment in all cases: NCI-60 cell line screen, 48 h
OVCAR-4 ovarian = tested on: OVCAR-4 ovarian
K-562 leukemia = tested on: K-562 leukemia
RPMI-8226 leukemia = tested on: RPMI-8226 leukemia
HCT-116 colon = tested on: HCT-116 colon
M14 melanoma = tested on: M14 melanoma
MDA-MB-435 = tested on: MDA-MB-435
SNB-75 CNS = tested on: SNB-75 CNS
SK-MEL-28 melanoma = tested on: SK-MEL-28 melanoma
SR leukemia = tested on: SR leukemia
CAKI-1 renal = tested on: CAKI-1 renal
PC-3 prostate = tested on: PC-3 prostate
OVCAR-8 ovarian = tested on: OVCAR-8 ovarian
SNB-19 CNS = tested on: SNB-19 CNS
SK-OV-3 ovarian = tested on: SK-OV-3 ovarian
IGROV1 ovarian = tested on: IGROV1 ovarian
SN12C renal = tested on: SN12C renal
ACHN renal = tested on: ACHN renal
BT-549 breast = tested on: BT-549 breast
NCI-H460 lung = tested on: NCI-H460 lung
786-0 renal = tested on: 786-0 renal
UACC-62 melanoma = tested on: UACC-62 melanoma
KM12 colon = tested on: KM12 colon
HOP-92 NSCLC = tested on: HOP-92 NSCLC
EKVX NSCLC = tested on: EKVX NSCLC
TK-10 renal = tested on: TK-10 renal
UO-31 renal = tested on: UO-31 renal
NCI-H23 lung = tested on: NCI-H23 lung
COLO 205 colon = tested on: COLO 205 colon
SW-620 colon = tested on: SW-620 colon
OVCAR-3 ovarian = tested on: OVCAR-3 ovarian
OVCAR-5 ovarian = tested on: OVCAR-5 ovarian
UACC-257 melanoma = tested on: UACC-257 melanoma
SF-295 CNS = tested on: SF-295 CNS
MDA-MB-468 breast = tested on: MDA-MB-468 breast
MCF7 breast = tested on: MCF7 breast
MALME-3M melanoma = tested on: MALME-3M melanoma
HOP-62 NSCLC = tested on: HOP-62 NSCLC
SF-539 CNS = tested on: SF-539 CNS
HT29 colon = tested on: HT29 colon
CCRF-CEM leukemia = tested on: CCRF-CEM leukemia
HL-60(TB) leukemia = tested on: HL-60(TB) leukemia
MDA-MB-231 breast = tested on: MDA-MB-231 breast
SK-MEL-5 melanoma = tested on: SK-MEL-5 melanoma
HCC-2998 colon = tested on: HCC-2998 colon
NCI-H226 lung = tested on: NCI-H226 lung
HCT-15 colon = tested on: HCT-15 colon
RXF 393 renal = tested on: RXF 393 renal
DU-145 prostate = tested on: DU-145 prostate
NCI-H522 lung = tested on: NCI-H522 lung
A498 renal = tested on: A498 renal
HS 578T breast = tested on: HS 578T breast
T-47D breast = tested on: T-47D breast
SF-268 CNS = tested on: SF-268 CNS
LOX IMVI melanoma = tested on: LOX IMVI melanoma
A549 NSCLC = tested on: A549 NSCLC
SK-MEL-2 melanoma = tested on: SK-MEL-2 melanoma
U251 CNS = tested on: U251 CNS
MOLT-4 leukemia = tested on: MOLT-4 leukemia

N#Cc1c(NC(=O)c2ccc(C(F)(F)F)cc2)sc2c1CCC(O)=C2
GI50 (OVCAR-4 ovarian): 7.47 µM
TGI (OVCAR-4 ovarian): 35 µM
GI50 (K-562 leukemia): 2230 nM
TGI (K-562 leukemia): > 100 µM
GI50 (RPMI-8226 leukemia): 3.53 µM
TGI (RPMI-8226 leukemia): > 100 µM
GI50 (HCT-116 colon): 3.49 µM
TGI (HCT-116 colon): 13.4 µM
GI50 (M14 melanoma): 3.6 µM
TGI (M14 melanoma): 15.8 µM
GI50 (MDA-MB-435): 1230 nM
TGI (MDA-MB-435): 3.31 µM
GI50 (SNB-75 CNS): 1120 nM
TGI (SNB-75 CNS): 6.1 µM
GI50 (SK-MEL-28 melanoma): 6.17 µM
TGI (SK-MEL-28 melanoma): 25.8 µM
GI50 (SR leukemia): 1480 nM
TGI (SR leukemia): > 100 µM
GI50 (CAKI-1 renal): 3.05 µM
TGI (CAKI-1 renal): 16 µM
GI50 (PC-3 prostate): 6.12 µM
TGI (PC-3 prostate): > 100 µM
GI50 (OVCAR-8 ovarian): 5.71 µM
TGI (OVCAR-8 ovarian): 22.3 µM
GI50 (SNB-19 CNS): 7.46 µM
TGI (SNB-19 CNS): 24.3 µM
GI50 (SK-OV-3 ovarian): 4.36 µM
TGI (SK-OV-3 ovarian): 20 µM
GI50 (IGROV1 ovarian): 5.23 µM
TGI (IGROV1 ovarian): 19 µM
GI50 (SN12C renal): 4.08 µM
TGI (SN12C renal): 16.5 µM
GI50 (ACHN renal): 6.81 µM
TGI (ACHN renal): 27.9 µM
GI50 (BT-549 breast): 2820 nM
TGI (BT-549 breast): 19.3 µM
GI50 (NCI-H460 lung): 3.53 µM
TGI (NCI-H460 lung): 14.2 µM
GI50 (786-0 renal): 5.53 µM
TGI (786-0 renal): 22.1 µM
GI50 (UACC-62 melanoma): 3.23 µM
TGI (UACC-62 melanoma): 16.2 µM
GI50 (KM12 colon): 3.16 µM
TGI (KM12 colon): 13.1 µM
GI50 (HOP-92 NSCLC): 2850 nM
TGI (HOP-92 NSCLC): 21.9 µM
GI50 (EKVX NSCLC): 7.4 µM
TGI (EKVX NSCLC): 31.4 µM
GI50 (TK-10 renal): 13.3 µM
TGI (TK-10 renal): 50.3 µM
GI50 (UO-31 renal): 2120 nM
TGI (UO-31 renal): 16.4 µM
GI50 (NCI-H23 lung): 4.91 µM
TGI (NCI-H23 lung): 22 µM
GI50 (COLO 205 colon): 13.4 µM
TGI (COLO 205 colon): 30 µM
GI50 (SW-620 colon): 3.13 µM
TGI (SW-620 colon): 14 µM
GI50 (OVCAR-3 ovarian): 3.24 µM
TGI (OVCAR-3 ovarian): 12 µM
GI50 (OVCAR-5 ovarian): 5.38 µM
TGI (OVCAR-5 ovarian): 25 µM
GI50 (UACC-257 melanoma): 6.64 µM
TGI (UACC-257 melanoma): 29.4 µM
GI50 (SF-295 CNS): 4.08 µM
TGI (SF-295 CNS): 16.7 µM
GI50 (MDA-MB-468 breast): 2120 nM
TGI (MDA-MB-468 breast): 8.11 µM
GI50 (MCF7 breast): 3.03 µM
TGI (MCF7 breast): 21.7 µM
GI50 (MALME-3M melanoma): 2290 nM
TGI (MALME-3M melanoma): 12 µM
GI50 (HOP-62 NSCLC): 4.49 µM
TGI (HOP-62 NSCLC): 17.8 µM
GI50 (SF-539 CNS): 2100 nM
TGI (SF-539 CNS): 6.92 µM
GI50 (HT29 colon): 4.61 µM
TGI (HT29 colon): 18.3 µM
GI50 (CCRF-CEM leukemia): 3.21 µM
TGI (CCRF-CEM leukemia): > 100 µM
GI50 (HL-60(TB) leukemia): 2770 nM
TGI (HL-60(TB) leukemia): > 100 µM
GI50 (MDA-MB-231 breast): 2960 nM
TGI (MDA-MB-231 breast): 14.3 µM
GI50 (SK-MEL-5 melanoma): 2710 nM
TGI (SK-MEL-5 melanoma): 9.4 µM
GI50 (HCC-2998 colon): 7.46 µM
TGI (HCC-2998 colon): 21.2 µM
GI50 (NCI-H226 lung): 4.03 µM
TGI (NCI-H226 lung): 19.2 µM
GI50 (HCT-15 colon): 3.51 µM
TGI (HCT-15 colon): 15.8 µM
GI50 (RXF 393 renal): 2380 nM
TGI (RXF 393 renal): 12.7 µM
GI50 (DU-145 prostate): 6.53 µM
TGI (DU-145 prostate): 22 µM
GI50 (NCI-H522 lung): 2530 nM
TGI (NCI-H522 lung): 12 µM
GI50 (A498 renal): 14 µM
TGI (A498 renal): 34.2 µM
GI50 (HS 578T breast): 2320 nM
TGI (HS 578T breast): 14.1 µM
GI50 (T-47D breast): 3.13 µM
TGI (T-47D breast): 24.9 µM
GI50 (SF-268 CNS): 3.87 µM
TGI (SF-268 CNS): 20.7 µM
GI50 (LOX IMVI melanoma): 4.56 µM
TGI (LOX IMVI melanoma): 16.8 µM
GI50 (A549 NSCLC): 6.36 µM
TGI (A549 NSCLC): 24.1 µM
GI50 (SK-MEL-2 melanoma): 3.21 µM
TGI (SK-MEL-2 melanoma): 11.7 µM
GI50 (U251 CNS): 4.13 µM
TGI (U251 CNS): 16.5 µM
GI50 (MOLT-4 leukemia): 4.43 µM
TGI (MOLT-4 leukemia): > 100 µM
